# Laboratory results reported in US20130136691A1, “GASTRIN […] PEPTIDE COMPOUNDS” (priority 2008, published 2013).
# Key:
# [1] = tested on: GRP receptor binding in T47D human breast cancer cells; experiment: Effect of drug treatment on GRP receptor binding (177Lu-AMBA) and proliferation in T-47D cells; type: cell-based; settings: for GRP receptor specific signal per cell (177Lu-AMBA binding) versus untreated controls, in words: drug 0.1-1.0 μM (β2-estradiol 1 nM); for increase in 177Lu-AMBA binding (GRP receptor specific signal per cell) / decrease in 177Lu-AMBA binding (GRP receptor specific signal per cell): relative to untreated control; for increase in 177Lu-AMBA binding (GRP receptor specific signal per cell): drug 0.1-1.0 μM (gefitinib 0.1-10 μM); for decrease in 177Lu-AMBA binding (GRP receptor specific signal per cell): drug 0.1-1.0 μM (4-OH Tamoxifen 0.001-0.1 μM); for change in 177Lu-AMBA binding (GRP receptor specific signal per cell), T47D: Table 25, range 0.001-0.1 μM, vs untreated controls
# Excerpt: T-47D breast cancer cells (human metastatic mammary gland ductal adenocarcinoma isolated from pleural effusion, ER+, PR+) were obtained from the American Type Culture Collection.
# [2] = tested on: GRP receptor binding in PC-3 prostate cancer cells; experiment: Effect of drug treatment on GRP receptor binding (177Lu-AMBA) and proliferation in PC-3 cells; settings: for decrease in 177Lu-AMBA binding (GRP receptor specific signal per cell): drug 0.1-1.0 μM (gefitinib 0.1-10 μM); for GRP receptor specific signal per cell (177Lu-AMBA binding) versus untreated controls, in words: drug 0.1-1.0 μM (4-OH Tamoxifen 0.001-0.1 μM); for change in 177Lu-AMBA binding (GRP receptor specific signal per cell), PC-3: Table 25, range 0.001-0.1 μM, vs untreated controls
# Procedure: (§1) RPMI 1640 supplemented with 20 mM HEPES, 0.1% BSA (w/v), 0.5 mM PMSF (AEBSF), bacitracin (50 mg/500 ml), pH 7.4.
# (§2) Treatment: BT-474 cells were plated on Day 0 (see above); approximately 24-48 h after plating, treatment Days 1 and 2 (DT1, DT2), the medium was removed and replaced with fresh growth medium (control), or growth medium with the addition of lapatinib (0.1-1.0 μM). […] Incubations were stopped by the addition of 200 μL of ice-cold binding buffer. Plates were washed three more times with binding buffer, 140 μL of scintillation fluid was added to each well, the plates were sealed and analyzed on a Microp plate reader (Microbeta Trilux, Perkin-Elmer).
# (§3) Treatment: BT-474 cells were plated on Day 0 and treated on Days 1 and 2 (DT1, DT2).
# [3] = tested on: GRP receptor binding in BT-474 human breast cancer cells; experiment: Effect of drug treatment on GRP receptor binding (177Lu-AMBA) and proliferation in BT-474 cells; settings: for decrease in 177Lu-AMBA binding (GRP receptor specific signal per cell): relative to untreated control, drug 0.1-1.0 μM (4-OH Tamoxifen 0.001-0.1 μM); for GRP receptor specific signal per cell (177Lu-AMBA binding) versus untreated controls, in words: drug 0.1-1.0 μM (gefitinib 0.1-10 μM); for change in 177Lu-AMBA binding (GRP receptor specific signal per cell), BT-474: Table 25, range 0.001-0.1 μM, vs untreated controls
# Procedure: Cells for binding experiments were plated on Day 0 at 5.6×10^4 cells/cm^2 in 96-well white/clear bottom microtiter plates (Falcon Optilux-I), or 96 well black/clear collagen I cellware plates (Beckton Dickinson Biocoat).
# as §1, §2, §3
# PC3 cells = experiment: Internalization and efflux assay in PC3 cells (125I-BBN, 177Lu complexes); type: cell-based, human; settings: 37° C., 125I-BBN and Lu-177 complexes; for Efflux (2 h): after 40 min loading
# Procedure: These studies were conducted in a 96-well plate. […] Incubations were stopped by the addition of 200 μl of ice-cold binding buffer. Plates were washed twice with binding buffer. To remove surface-bound radioligand, the cells were incubated with 0.2M acetic acid (in saline), pH 2.8 for 2 min. Plates were centrifuged and the acid wash media were collected to determine the amount of radioactivity which was not internalized. The cells were collected to determine the amount of internalized ^125I-BBN, and all samples were analyzed in the gamma counter. Data for the internalization assay was normalized by comparing counts obtained at the various time points with the counts obtained at the final time point (T=40 min).
# For the efflux studies, after loading the PC3 cells with ^125I-BBN or radiolabeled compounds of the invention for 40 min at 37° C., the unbound material was filtered, and the % of internalization was determined as above. The cells were then resuspended in binding buffer at 37° C. for up to 3 h.
# [4] = tested on: PC3 tumor-bearing nude mouse model; experiment: Radiotherapy efficacy studies (short and long term survival); type: in vivo; settings: 177Lu labeled; for survival, Short Term Efficacy Study: 30 mCi/kg i.v. or s.c., versus untreated control and DO3A-monoamide-Aoc-QWAVGHLM-NH2 control; for survival, Long Term Efficacy Study: 30 mCi/kg, up to 120 days, n=46, p<0.0001 versus controls
# Procedure: Radiotherapy studies were performed using the PC3 tumor-bearing nude mouse model. […] (n=12 for each treatment group for up to days, and n=36 for the pooled untreated control group for up to 31 days). […] The subjects were housed in a barrier environment for the duration of the study. Body weight and tumor size (by caliper measurement) were collected on each subject 3 times per week for the duration of the study. Criteria for early termination included: death; loss of total body weight (TBW) equal to or greater than 20%; tumor size equal to or greater than 2 cm^3.
# NMB-R = target: T1, NMB-R (Rattus norvegicus, UniProt P24053); experiment: Competition with 125I-NMB for NMB-R in C6 cells; type: binding, rodent; settings: cut off 10× the IC50 of [Tyr4]-BBN; for GRP-R and NMB-R (binds both with similar affinity): class from IC50 with 125I-NMB on C6 cells; for receptor subtype preference (GRP-R versus NMB-R): from IC50 with 125I-NMB on C6 cells and 125I-BBN on PC3 cells
# T1 construct: C6, an NMB-R expressing rodent glioblastoma cell line; host or cells: C6 glioma cells (intact, plated)
# T1 sequence (P24053 1-390): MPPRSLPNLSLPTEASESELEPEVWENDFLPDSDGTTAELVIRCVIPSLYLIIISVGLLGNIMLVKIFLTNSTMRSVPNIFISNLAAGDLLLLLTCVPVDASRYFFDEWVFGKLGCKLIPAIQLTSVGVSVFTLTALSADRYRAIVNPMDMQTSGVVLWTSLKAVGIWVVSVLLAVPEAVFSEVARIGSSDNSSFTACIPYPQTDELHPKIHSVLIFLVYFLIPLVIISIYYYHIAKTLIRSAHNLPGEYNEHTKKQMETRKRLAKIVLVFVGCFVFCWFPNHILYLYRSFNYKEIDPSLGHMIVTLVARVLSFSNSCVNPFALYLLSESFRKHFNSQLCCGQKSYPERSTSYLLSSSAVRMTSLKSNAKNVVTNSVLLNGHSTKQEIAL
# Procedure: Two cell lines, C6, an NMB-R expressing rodent glioblastoma cell line and PC3, a GRP-R expressing human prostate cancer cell line, were used in this assay. The affinity of various unlabeled compounds for each receptor subtype (NMB-R and GRP-R) was determined indirectly by measuring its ability to compete with the binding of ^125I-NMB or ^125I-BBN to its corresponding receptors in C6 and PC3 cells.
# Cells for the assays were plated at a concentration of 9.6×10^4/well in 48 well poly-lysine coated plates (Beckton Dickinson Biocoat). PC3 were obtained from ATCC(CRL-1435) and cultured in RPMI 1640 (ATCC) supplemented with 2 mM L-glutamine, 1.5 g/L Sodium bicarbonate, 10 mM HEPES and 10% FBS. […] PC3 cells for the assays were plated at a concentration of 2.0×10^4 cells/well in 96-well white/clear bottom plates (Falcon Optilux-I). Plates were used for the assays on day 2 of the post-plating.
# RPMI 1640 (ATCC) containing 25 mM HEPES, 0.2% BSA fraction V, 1.0 mM AEBSF (CAS #3087-99-7) and 0.1% Bacitracin (CAS #1405-87-4), pH 7.4. Custom made ^125I-[Tyr°]NMB, >2.0 Ci/mole (Amersham Life Science) [^125I-NMB] and commercially available ^125I-[Tyr^4]BBN, >2.0 Ci/mole (Perkin Elmer Life Science) [^125I-BBN] were used as radioligands.
# Using a 48-well plate assay system (for C6 study) competition experiments were performed using ^125I-NMB. […] Selection of compounds for the assay was based on linker subtype.
# The binding parameters obtained from the studies were analyzed using a one-site competition non-linear regression analysis with GraphPad Prism. The relative affinity of various compounds for NMB-R in C6 cells were compared with those obtained using commercially available [Tyr^4]-BBN and [Tyro]-NMB. To distinguish the GRP-R preferring compounds from NMB-R plus GRP-R preferring compounds, IC50 values obtained for each compound were compared with those obtained from [Tyr^4-BBN with ^125I-NMB on C6 cells.
# [5] = PC-3, relative to untreated control
molecule,measurement,setting,value
CNC(=O)c1cc(Oc2ccc(NC(=O)Nc3ccc(Cl)c(C(F)(F)F)c3)cc2)ccn1 [sorafenib],"GRP receptor specific signal per cell (177Lu-AMBA binding) versus untreated controls, in words",[1]; T-47D,no change
same,"change in 177Lu-AMBA uptake on a viable cell basis, T47D","[1]; Table 24, drug 0.1-1.0 μM (gefitinib 0.1-10, bortezomib 0.001-0.1), vs untreated control",NC (NC: Little (<10%) or no change in Lu-AMBA uptake)
same,decrease in 177Lu-AMBA binding (GRP receptor specific signal per cell),[2]; [5],10-20%
same,decrease in 177Lu-AMBA binding (GRP receptor specific signal per cell),[3]; BT-474,10-25%
CCN(CC)CCNC(=O)c1c(C)[nH]c(/C=C2\C(=O)Nc3ccc(F)cc32)c1C [sunitinib],increase in 177Lu-AMBA binding (GRP receptor specific signal per cell),[1]; T-47D,up to 13%
same,increase in 177Lu-AMBA binding (GRP receptor specific signal per cell),"[2]; PC-3, relative to untreated control, drug 0.1-1.0 μM",up to 10%
same,decrease in 177Lu-AMBA binding (GRP receptor specific signal per cell),[3]; BT-474,up to 8%
DO3A-monoamide-8-amino-octanoic acid-BBN (7-14),Internalisation (40 minutes),PC3 cells,89%
same,Efflux (2 h),PC3 cells,28%
CC(C)(C#N)c1cc(Cn2cncn2)cc(C(C)(C)C#N)c1 [anastrozole],decrease in 177Lu-AMBA binding (GRP receptor specific signal per cell),[1]; T-47D,up to 10%
same,decrease in 177Lu-AMBA binding (GRP receptor specific signal per cell),[2]; [5],up to 10%
same,"GRP receptor specific signal per cell (177Lu-AMBA binding) versus untreated controls, in words",[3]; BT-474,no change
C#Cc1cccc(Nc2ncnc3cc(OCCOC)c(OCCOC)cc23)c1 [erlotinib],increase in 177Lu-AMBA binding (GRP receptor specific signal per cell),[1]; T-47D,5-20%
same,decrease in 177Lu-AMBA binding (GRP receptor specific signal per cell),[2]; [5],5-20%
same,"GRP receptor specific signal per cell (177Lu-AMBA binding) versus untreated controls, in words",[3]; BT-474,no change
"N-[4-[[[[[4,7,10-Tris(carboxymethyl)-1,4,7,10-tetraazacyclododec-1-yl]acetyl]amino]acetyl]amino]benzoyl]-L-glutaminyl-L-tryptophyl-L-alanyl-L-valyl-glycyl-L-histidyl-L-leucyl-L-methioninamide [Compound L70]","survival, Short Term Efficacy Study",[4],increased survival
same,"survival, Long Term Efficacy Study",[4],significantly increased survival
same,Internalisation (40 minutes),PC3 cells,70%
same,Efflux (2 h),PC3 cells,12%
Cc1ccc(NC(=O)c2ccc(CN3CCN(C)CC3)cc2)cc1Nc1nccc(-c2cccnc2)n1 [imatinib],increase in 177Lu-AMBA binding (GRP receptor specific signal per cell),[1]; T-47D,up to 15%
same,decrease in 177Lu-AMBA binding (GRP receptor specific signal per cell),[2]; [5],15-25%
same,"GRP receptor specific signal per cell (177Lu-AMBA binding) versus untreated controls, in words",[3]; BT-474,no change
C[C@]12CC[C@@H]3c4ccc(O)cc4CC[C@H]3[C@@H]1CC[C@@H]2O [β2-estradiol],"GRP receptor specific signal per cell (177Lu-AMBA binding) versus untreated controls, in words",[1]; T-47D,did not change
same,"change in 177Lu-AMBA binding (GRP receptor specific signal per cell), T47D",[1],0%
same,"GRP receptor specific signal per cell (177Lu-AMBA binding) versus untreated controls, in words",[2]; PC-3,no change
same,"change in 177Lu-AMBA binding (GRP receptor specific signal per cell), PC-3",[2],0%
same,"change in 177Lu-AMBA binding (GRP receptor specific signal per cell), BT-474",[3],47%
CS(=O)(=O)CCNCc1ccc(-c2ccc3ncnc(Nc4ccc(OCc5cccc(F)c5)c(Cl)c4)c3c2)o1 [lapatinib],decrease in cell proliferation,"[1]; T-47D, at the highest concentration",≤ 35%
same,increase in 177Lu-AMBA binding (GRP receptor specific signal per cell),[1]; T-47D,up to 50%
same,"proliferation versus untreated controls, in words","[2]; PC-3, 0.1-1.0 μM",no change
same,"GRP receptor specific signal per cell (177Lu-AMBA binding) versus untreated controls, in words",[2]; PC-3,no change
same,decrease in cell proliferation,"[3]; BT-474, at the highest concentration",≤ 65%
COc1cc2ncnc(Nc3ccc(F)c(Cl)c3)c2cc1OCCCN1CCOCC1 [gefitinib],increase in 177Lu-AMBA binding (GRP receptor specific signal per cell),[1]; T-47D,up to 20%
same,decrease in 177Lu-AMBA binding (GRP receptor specific signal per cell),[2]; [5],20-40%
same,"GRP receptor specific signal per cell (177Lu-AMBA binding) versus untreated controls, in words",[3]; BT-474,no change
"CSCC[C@H](NC(=O)[C@H](CC(C)C)NC(=O)[C@H](Cc1c[nH]cn1)NC(=O)CNC(=O)[C@@H](NC(=O)[C@H](C)NC(=O)[C@H](Cc1c[nH]c2ccccc12)NC(=O)[C@H](CCC(N)=O)NC(=O)CC[C@@H](C)[C@H]1CC[C@H]2[C@@H]3[C@H](O)C[C@@H]4C[C@@H](NC(=O)CNC(=O)CN5CCN(CC(=O)O)CCN(CC(=O)O)CCN(CC(=O)O)CC5)CC[C@]4(C)[C@H]3C[C@H](O)[C@]12C)C(C)C)C(N)=O [Compound L64, N-[(3β,5β,7α,12α)-3-[[[[[4,7,10-Tris(carboxymethyl)-1,4,7,10-tetraazacyclododec-1-yl]acetyl]amino]acetyl]amino]-7,12-dihydroxy-24-oxocholan-24-yl]-L-glutaminyl-L-tryptophyl-L-alanyl-L-valyl-glycyl-L-histidyl-L-leucyl-L-methioninamide]",GRP-R and NMB-R (binds both with similar affinity),NMB-R,yes
same,receptor subtype preference (GRP-R versus NMB-R),NMB-R,dual affinity for both GRP-R and NMB-R
same,"survival, Short Term Efficacy Study",[4],increased survival
same,"survival, Long Term Efficacy Study",[4],significantly increased survival
same,Internalisation (40 minutes),PC3 cells,69%
same,Efflux (2 h),PC3 cells,20%
CC(C)C[C@H](NC(=O)[C@H](Cc1ccccc1)NC(=O)c1cnccn1)B(O)O [bortezomib],decrease in 177Lu-AMBA binding (GRP receptor specific signal per cell),[1]; T-47D,up to 50%
same,decrease in 177Lu-AMBA binding (GRP receptor specific signal per cell),[2]; [5],up to 60%
same,decrease in 177Lu-AMBA binding (GRP receptor specific signal per cell),[3]; BT-474,up to 50%
CC/C(=C(\c1ccc(O)cc1)c1ccc(OCCN(C)C)cc1)c1ccccc1 [Compounds 4-OH-Tamoxifen],"change in 177Lu-AMBA binding (GRP receptor specific signal per cell), T47D",[1],−35%
same,"change in 177Lu-AMBA binding (GRP receptor specific signal per cell), PC-3",[2],0%
same,"change in 177Lu-AMBA binding (GRP receptor specific signal per cell), BT-474",[3],−73%
"N-[4-[[[[4,7,10-Tris(carboxymethyl)-1,4,7,10-tetraazacyclododec-1-yl]acetyl]glycyl]amino]-3-methoxybenzoyl]-L-glutaminyl-L-tryptophyl-1-alanyl-L-valyl-glycyl-L-histidyl-L-leucyl-L-methioninamide [Compound L240]",receptor subtype preference (GRP-R versus NMB-R),NMB-R,selective affinity to GRP-R
"CSCC[C@H](NC(=O)[C@H](CC(C)C)NC(=O)[C@H](Cc1c[nH]cn1)NC(=O)CNC(=O)[C@@H](NC(=O)[C@H](C)NC(=O)[C@H](Cc1c[nH]c2ccccc12)NC(=O)[C@H](CCC(N)=O)NC(=O)CC[C@@H](C)[C@H]1CC[C@H]2[C@@H]3CC[C@@H]4C[C@@H](NC(=O)CNC(=O)CN5CCN(CC(=O)O)CCN(CC(=O)O)CCN(CC(=O)O)CC5)CC[C@]4(C)[C@H]3C[C@H](O)[C@]12C)C(C)C)C(N)=O [Compound L63, N-[(3β,5β,12α)-3-[[[[[4,7,10-Tris(carboxymethyl)-1,4,7,10-tetraazacyclododec-1-yl]acetyl]amino]acetyl]amino]-12-hydroxy-24-oxocholan-24-yl]-L-glutaminyl-L-tryptophyl-L-alanyl-L-valyl-glycyl-L-histidyl-L-leucyl-L-methioninamide]",GRP-R and NMB-R (binds both with similar affinity),NMB-R,yes
same,receptor subtype preference (GRP-R versus NMB-R),NMB-R,dual affinity for both GRP-R and NMB-R
same,"survival, Short Term Efficacy Study",[4],increased survival
same,Internalisation (40 minutes),PC3 cells,64%
same,Efflux (2 h),PC3 cells,0%
